Assay [1] has as its system D614G spike-pseudotyped virus. Type of assay: cell-based, SARS-CoV-2.
Assay [2] deals with Omicron BA.1 spike-pseudotyped virus. The experiment in a line: microbe, parasite or virus in culture. Format: cell-based, SARS-CoV-2.
Setting [3] is: 293T-ACE2 cells, 3 days, luciferase reporter, mean ± SD of three tests, Inactive = CC50/IC50 ratio < 5.

Molecules are shown by their SMILES. “And” between values parts separate entries of the source, which are not always exact repeats. Equal entries are not always repeated. Where two headings read alike, the source gives them in different places.

One may read the IC50 as the point on the concentration scale where inhibition reaches its midpoint.

With `C1=C2CCCN(CCCCCNCc3ccccc3)C2C2CC1C1CCCCN1C2` (centres unmarked) [Compound 4], the IC50 in assay [1] came to 0.86 ± 1.5 µM. For the same compound, the “IC50, D614G spike-pseudotyped virus” value in assay [1] (setting [3]) is on record as “sub-µM potency”.

Turning to `COc1ccc(C(=O)NCCCCN2CCCC3=CC4CC(CN5CCCCC45)C32)cc1` (centres unmarked) [Compound 6], the IC50 in assay [1] was 11.9 ± 2.1 µM.

On to `C1=C2CCCN(CCCCNCc3ccccc3)C2C2CC1C1CCCCN1C2` (centres unmarked) [Compound 5], for which, in assay [1], the “Fold more potent than aloperine against D614G spike-pseudotyped virus” value was “approximately 22 fold”; the “Fold more potent than chloroquine against D614G spike-pseudotyped virus” value is on record as approximately 5 fold; the half-maximal inhibitory concentration (IC50) is 0.5 µM and 0.53 µM. Further, in assay [1] (setting [3]), the “IC50, D614G spike-pseudotyped virus” value is given as “sub-µM potency”. In addition, in assay [2], the “Fold less sensitive, Omicron variants” value is recorded as “approximately 1.5 fold”. In addition, in assay [2] (Severe acute respiratory syndrome coronavirus 2, 293T/ACE2, read-out: IC50, Omicron BA.1 spike-pseudotyped virus), the IC50 was 0.76 ± 0.22 µM.

On to `CCOC(=O)[C@H]1O[C@@H]1C(=O)N[C@@H](CC(C)C)C(=O)NCCC(C)C` [Compound E64D, E64D, reference compound], for which the IC50 in assay [1] (setting [3]) came out at 0.48 ± 0.11 µM; in assay [2] (read-out: IC50, Omicron BA.1 spike-pseudotyped virus) it was 0.36 ± 0.076 µM.

With `O=C(NCCCCCCN1CCCC2CC3CC(CN4CCCCC34)C21)c1c(F)cc(Br)cc1F` (centres unmarked) [Compound 1], half-maximal inhibition in assay [1] (IC50) was put at 4.7 ± 0.76 µM.

For the compound `O=C(NCCCCCCCC(=O)N1CCCC2=CC3CC(CN4CCCCC34)C21)c1ccc(OC(F)(F)F)cc1` (centres unmarked) [Compound 8], in assay [1], the IC50 was 17.5 ± 2.3 µM. For the same compound, the “IC50, D614G spike-pseudotyped virus” value in assay [1] (setting [3]) was “weak inhibitor”.

Turning to `Fc1ccc(CNCCCCN2CCCC3=CC4CC(CN5CCCCC45)C32)cc1` (centres unmarked) [Compound 9], the IC50 in assay [1] is 0.61 ± 0.18 µM.

On to `C1=C2CCCN[C@H]2[C@@H]2C[C@H]1[C@H]1CCCCN1C2` [Aloperine, aloperine, reference compound], for which the IC50 in assay [1] is 11.5 ± 2.3 µM.

Compound `O=C(Cc1ccc(S(=O)(=O)C(F)(F)F)cc1)NCCCCN1CCCC2=CC3CC(CN4CCCCC34)C21` (centres unmarked) [Compound 3] had an IC50 in assay [1] of 3.8 ± 0.68 µM.

With `CCN(CC)CCCC(C)Nc1ccnc2cc(Cl)ccc12` (centres unmarked) [Chloroquine diphosphate, reference compound], half-maximal inhibition in assay [1] (IC50) required 2.3 ± 3.6 µM.

`CC(C)(C)c1ccc(C(=O)NCCCCCCN2CCCC3=CC4CC(CN5CCCCC45)C32)cc1` (centres unmarked) [Compound 7] had an IC50 in assay [1] of 3.7 ± 0.87 µM.

Regarding `O=C(NCCN1CCCC2=CC3CC(CN4CCCCC34)C21)c1ccccc1F` (centres unmarked) [Compound 2], the “IC50, D614G spike-pseudotyped virus” value in assay [1] is “Inactive ^8”.

(Values after paper PMC9455918, “Quinolizidines as Novel SARS-CoV-2 Entry Inhibitors” (International Journal of Molecular Sciences, 2022).)
